Results: US8557763B2, “Synthetic peptides that enhance tight junction permeability” (Alba Therapeutics Corporation, priority 2007, dated 2013)
Where no end group is shown, it is not given here. [ ]: non-standard residue; d: D form. AllylGly = C=CC[C@H](N)C(=O)O

Assays:
Assay type in all cases: cell-based
HeLa cells = assay: Assay of cytoskeletal (actin) rearrangement, fluorescence microscopy; details: 60 minutes, FIG. 11
Description: FIG. 10 is a fluorescence microscopy analysis showing the effects of FCIGRL (SEQ ID NO:1) and F-(Allyl)GIGRL (SEQ ID NO:2) on actin rearrangement in HeLa cells after 15 minutes and 60 minutes.
Gliadin treated with the peptidases pepsin and trypsin (termed PT-gliadin or PTG) induces a cytoskeletal arrangement in CaCo2 cells grown in monolayers. The rearrangement can be visualized using a Nikon-TE2000 epifluorescence microscope and a 40× objective and Alexa Fluor 555 conjugated phalloidin (Invitrogen, Carlsbad, Calif.), which binds specifically to F-actin. Exposure times were identical for control and agonist treated samples. The figures were generated using Adobe Photoshop CS2 v 9.0.2. The concentration of agonist was as indicated. Tight junction agonists can be identified by their ability to induce the cytoskeletal rearrangement as shown by the effects of peptide FCIGRL, a known tight junction agonist. FIGS. 3-6 and 8-11 show the cytoskeletal rearrangements induced by exemplary tight junction agonists of the invention, including with respect to the distribution of F-actin and the tight junction protein ZO-1.

CaCo2 monolayers [1] = assay: Lucifer Yellow (LY) permeability assay through CaCo2 monolayers; design: key to Enhanced LY permeability: + indicates an enhancement of the permeability of the tight junctions were observed; − indicates no enhancement of permeability was observed; details: CaCo2 monolayers, Lucifer Yellow flux
CaCo2 monolayers [2] = assay: Trans Epithelial Electric Resistance (TEER) across CaCo2 monolayers; design: key to Reduced TEER: + indicates an enhancement of the permeability of the tight junctions were observed; − indicates no enhancement of permeability was observed; details: CaCo2 monolayers

Substance	actin rearrangement in HeLa cells (HeLa cells)	Enhanced LY permeability (CaCo2 monolayers [1])	Reduced TEER (CaCo2 monolayers [2])
Phe−AllylGly−Ile−Gly−Arg−Leu−OH [SEQ ID NO: 2]	actin cytoskeletal rearrangement to the borderline of cells		
3 (F[AllylGly]IGR-NH2; N-terminus assumed; SMILES C=CC[C@H](NC(=O)[C@@H](N)Cc1ccccc1)C(=O)N[C@H](C(=O)NCC(=O)N[C@@H](CCCNC(=N)N)C(N)=O)[C@@H](C)CC) [compound 3]		−	−
22 (F[AllylGly]PGRL-NH2; N-terminus assumed; SMILES C=CC[C@H](NC(=O)[C@@H](N)Cc1ccccc1)C(=O)N1CCC[C@H]1C(=O)NCC(=O)N[C@@H](CCCNC(=N)N)C(=O)N[C@@H](CC(C)C)C(N)=O) [compound 22]		−	−
55 (F[AllylGly]IGHL-NH2; N-terminus assumed; SMILES C=CC[C@H](NC(=O)[C@@H](N)Cc1ccccc1)C(=O)N[C@H](C(=O)NCC(=O)N[C@@H](Cc1c[nH]cn1)C(=O)N[C@@H](CC(C)C)C(N)=O)[C@@H](C)CC) [compound 55]		−	−
7 (L[AllylGly]IGRL-NH2; N-terminus assumed; SMILES C=CC[C@H](NC(=O)[C@@H](N)CC(C)C)C(=O)N[C@H](C(=O)NCC(=O)N[C@@H](CCCNC(=N)N)C(=O)N[C@@H](CC(C)C)C(N)=O)[C@@H](C)CC) [compound 7]		+	−
28 (F[AllylGly]VGRL-NH2; N-terminus assumed; SMILES C=CC[C@H](NC(=O)[C@@H](N)Cc1ccccc1)C(=O)N[C@H](C(=O)NCC(=O)N[C@@H](CCCNC(=N)N)C(=O)N[C@@H](CC(C)C)C(N)=O)C(C)C) [compound 28]		−	−
42 (F[AllylGly]IARL-NH2; N-terminus assumed; SMILES C=CC[C@H](NC(=O)[C@@H](N)Cc1ccccc1)C(=O)N[C@H](C(=O)N[C@@H](C)C(=O)N[C@@H](CCCNC(=N)N)C(=O)N[C@@H](CC(C)C)C(N)=O)[C@@H](C)CC) [compound 42]		+	+
56 (F[AllylGly]IGDL-NH2; N-terminus assumed; SMILES C=CC[C@H](NC(=O)[C@@H](N)Cc1ccccc1)C(=O)N[C@H](C(=O)NCC(=O)N[C@@H](CC(=O)O)C(=O)N[C@@H](CC(C)C)C(N)=O)[C@@H](C)CC) [compound 56]		+	+
39 (F[AllylGly]ITRL-NH2; N-terminus assumed; SMILES C=CC[C@H](NC(=O)[C@@H](N)Cc1ccccc1)C(=O)N[C@H](C(=O)N[C@H](C(=O)N[C@@H](CCCNC(=N)N)C(=O)N[C@@H](CC(C)C)C(N)=O)[C@@H](C)O)[C@@H](C)CC) [compound 39]		+	+
5 (M[AllylGly]IGRL-NH2; N-terminus assumed; SMILES C=CC[C@H](NC(=O)[C@@H](N)CCSC)C(=O)N[C@H](C(=O)NCC(=O)N[C@@H](CCCNC(=N)N)C(=O)N[C@@H](CC(C)C)C(N)=O)[C@@H](C)CC) [compound 5]		+	−
33 (F[AllylGly]EGRL-NH2; N-terminus assumed; SMILES C=CC[C@H](NC(=O)[C@@H](N)Cc1ccccc1)C(=O)N[C@@H](CCC(=O)O)C(=O)NCC(=O)N[C@@H](CCCNC(=N)N)C(=O)N[C@@H](CC(C)C)C(N)=O) [compound 33]		+	+
